Converted amounts (≈) assume the structure as drawn.

Conditions in the first series: not given
For `CC(=O)OC1C=CC2C3Cc4ccc(O)c5c4C2(CCN3C)C1O5` (centres undefined), the logP (in general, the decadic logarithm of the partition coefficient of the neutral form, usually between octanol and water) is 1.55.

Molecule `CC1CCc2cc(F)cc3c(=O)c(C(=O)O)cn1c23` (centres undefined) showed a lipophilicity (logP) of 1.6.

As for `CCC(C(=O)Oc1ccccc1)C(C)C` (centres undefined), the logP amounted to 4.2.

In turn, `O=C(NCc1ccc(F)cc1)C(=O)c1c[nH]c2ccccc12` gave a log partition coefficient (logP) of 2.88.

Consider `CC(=O)/C=C/C1C(C)=CCCC1(C)C` (centres undefined), for which the solubility (commonly how much of the substance goes into solution per volume) came to 0.551 mM (≈ 106 µg/mL).

Take `Clc1cc2c(Cl)c(Cl)c(Cl)c(Cl)c2c(Cl)c1Cl`: the logP turned out to be 8.2.

In the case of `CC1=CCC(C(C)C)=CC1`, the logP came out at 4.5.

The molecule `Nc1ccc(Cc2ccc(N)c(Cl)c2)cc1Cl` came in with a solubility of 0.052 mM (≈ 13.9 µg/mL).

On to `CC1CCC(=O)N1C` (centres undefined), for which the log partition coefficient (logP) is -0.07.

As to `O=c1ccc2cc3ccoc3cc2o1`, the logP was 1.67.

On to `O=P(O)(O)CN(CCCCCCN(CP(=O)(O)O)CP(=O)(O)O)CP(=O)(O)O`, for which the logP was -4.43 and the solubility turned out to be 30.5 mM (≈ 15000 µg/mL).

`CN1CC=C(c2ccc(N)cc2)CC1`: the logP was 1.48.

For `Clc1cccc2c(Cl)cccc12`, the log partition coefficient (logP) is 4.67 and the solubility stood at 0.00192 mM (≈ 0.379 µg/mL).

With `CCCCC[C@H](O)/C=C/[C@H]1[C@H](O)CC(=O)[C@@H]1CCCCCCC(=O)O`, the lipophilicity (logP) is 3.2.

In turn, `NS(=O)(=O)c1cccc2ccccc12` gave a logP of 1.55.

As for `Nc1ccc2c(c1)Cc1cc([N+](=O)[O-])ccc1-2`, the log partition coefficient (logP) turned out to be 3.06.

`ClC=C1C2CC(C(Cl)C2Cl)C1(CCl)C(Cl)Cl` (centres undefined) registered a lipophilicity (logP) of 5.45.

`O=C(O)CNC(=O)c1cccc(I)c1` displayed a logP of 1.88.

Molecule `S=C=Nc1ccc(Cl)cc1` yielded a logP of 3.91.

Molecule `Nc1cc2ccccc2cc1N` displayed a logP of 1.54.

As to `CC(=O)Oc1ccc(CC(N)C(=O)O)cc1` (centres undefined), the logP is -1.33.

`COC(=O)n1c(-c2cscn2)nc2ccccc21` yielded a logP of 2.05.

In turn, `N#CCCOc1cccc2ccccc12` returned a lipophilicity (logP) of 2.8.

`ClC1=C(Cl)C2(Cl)C3C(Cl)C(Cl)CC3C1(Cl)C2(Cl)Cl` (centres undefined) yielded a logP of 6.16.

Consider `Cc1c(O)c(=O)ccn1CCO`, for which the log partition coefficient (logP) is -1.1.

Consider `C=CCCCCCCCC`, for which the logP is 5.7.

`COc1c(Cl)c(Cl)c(Cl)c(Cl)c1Cl` gave a logP of 5.45.

For the molecule `CCC(=O)OC`, the logP is 0.84.

With `CCc1c(C(=O)O)c(=O)cnn1-c1ccc(Cl)cc1`, the logP is -2.2 and the solubility was 2510 mM (≈ 700000 µg/mL).

Take `CNCCc1ccccn1`: the lipophilicity (logP) was 0.68.

On to `C=COCCn1cnc2[nH]c(=O)n(C)c(=N)c21`, for which the lipophilicity (logP) is -0.78.

For the molecule `CCN1CCCC1CNC(=O)c1c(OC)ccc(Br)c1O` (centres undefined), the logP is 2.

In turn, `O=C(O)CNC(=O)c1ccccc1I` returned a log partition coefficient (logP) of 0.97.

`CC1CCCCC1O` (centres undefined) had a logP of 1.82.

Regarding `Clc1cc2c(Cl)cccc2c(Cl)c1Cl`, the logP was 5.77.

Consider `COC(=O)C(C#N)=Cc1ccco1`, for which the lipophilicity (logP) was 1.65.

Take `COc1ccc(C=[N+]([O-])c2ccccc2)cc1`: the lipophilicity (logP) is 1.94.

On to `COc1nc(NC(C)C)nc(NC(C)C)n1`, for which the logP is 2.99.

Regarding `O=C1OC(c2ccc(O)cc2)(c2ccc(O)cc2)c2ccccc21`, the logP amounted to 2.89.

Take `CCCCCCOC(=O)c1ccccc1C(=O)OCCCCCC`: the logP is 6.82.

`C#CCN1C(=O)COc2cc(F)c(N3C(=O)C4=C(CCCC4)C3=O)cc21` yielded a logP of 2.55.

Turning to `Clc1cc(Cl)c2cc(Cl)ccc2c1`, the lipophilicity (logP) came to 5.35 and the solubility was 0.000278 mM (≈ 0.0644 µg/mL).

The molecule `Cc1cc(C)nc(NC(=O)NS(=O)(=O)c2ccccc2C(=O)OC2COC2)n1` gave a logP of 1.1.

Molecule `CC(C)NC1=NC(=O)C(=Cc2ccc([N+](=O)[O-])o2)S1` displayed a logP of 1.29.

Molecule `CCCCCCC(C)O` (centres undefined) displayed a log partition coefficient (logP) of 2.9.

In the case of `CSc1ccc(C=C(C#N)C#N)o1`, the logP was 2.45.

As for `O=Cc1ccc(F)cc1`, the logP stood at 1.54.

Take `CC(C)(C)NSc1nc2ccccc2s1`: the log partition coefficient (logP) turned out to be 4.67.

Consider `CCCCC[C@H](O)/C=C/[C@@H]1[C@@H](C/C=C\CCCC(=O)O)[C@@H](O)C[C@H]1O`, for which the logP is 4.39.

`CCOC(=O)C1=C(COCCN)NC(C)=C(C(=O)OC)C1c1ccccc1Cl` (centres undefined) displayed a lipophilicity (logP) of 3.

Regarding `COC1=CC(=O)C=C(OC)C1=O`, the log partition coefficient (logP) is -0.06.

Regarding `CCOC1OC2OC3(C)CCC4C(COC5OC(C(=O)O)C(O)C(O)C5O)CCC(C1C)C24OO3` (centres undefined), the logP stood at 1.05.

`NC(=S)NN=Cc1ccco1` came in with a lipophilicity (logP) of 1.64.

`CCc1ccc2cc3ccccc3cc2c1` registered a solubility of 0.00013 mM (≈ 0.0268 µg/mL).

`O=[N+]([O-])c1cc(C(F)F)c(Nc2ncc(C(F)(F)F)cc2Cl)c([N+](=O)[O-])c1`: the logP was determined as 3.52.

In the case of `O=C(O)C1C2CCC(O2)C1C(=O)O` (centres undefined), the logP amounted to 1.91.

As to `O=[N+]([O-])c1ccc2c(c1)-c1ccc([N+](=O)[O-])c3cccc-2c13`, the logP was 4.44.

Molecule `O=C([O-])c1ccccc1O.[Na+]` had a solubility of 781 mM.

As to `O=c1ccn(C2OC(CO)CC2F)c(=O)[nH]1` (centres undefined), the log partition coefficient (logP) is -0.87.

With `CCOc1cc(C=O)ccc1O`, the logP stood at 1.58.

For `COC(=O)c1ccccc1S(=O)(=O)NC(=O)Nc1nc(C)cc(C)n1`, the logP stood at 1.2.

For the molecule `O=C(CS(=O)(=O)c1ccccc1)c1ccc(Cl)cc1`, the logP is 2.69.

`CCCCC(=O)CCCC` gave a lipophilicity (logP) of 2.88.

The series is the same for the next values; noted with them: 20 °C.
Molecule `O=C(O)c1ccccn1` had a solubility of 7800 mM (≈ 960000 µg/mL).

For the molecule `CN(C)C(=N)N`, the solubility worked out at 18.6 mM (≈ 1620 µg/mL).

As for `C=COCC(C)C`, the solubility is 30 mM (≈ 3000 µg/mL).

With `ClC(Br)Br`, the solubility came out at 12.5 mM (≈ 2600 µg/mL).

Turning to `CCSCC`, the solubility is 34.7 mM (≈ 3130 µg/mL).

With `O=C(O)Cc1ccccc1`, the solubility worked out at 122 mM (≈ 16600 µg/mL).

The same series, now with this note: 22 °C.
`CN(C)C(=O)Nc1cccc(C(F)(F)F)c1` gave a solubility of 0.366 mM (≈ 85 µg/mL).

The same series, now with this note: 23 °C.
As to `CCOc1cc(OP(=S)(OC)OC)nc(CC)n1`, the solubility was 0.137 mM (≈ 40 µg/mL).

The series is the same for the next values; noted with them: 23.0 °C.
`O=C/C=C/c1ccccc1`: the log10 OH rate constant (cm³/molecule/s) is -10.3.

Staying with this series, now noted: 24.0 °C.
Regarding `Clc1cccc(-c2cccc(Cl)c2)c1`, the log10 OH rate constant (cm³/molecule/s) was -11.4.

Staying with this series, now noted: 25 °C.
For the molecule `NNc1ccccc1`, the solubility was 1170 mM (≈ 127000 µg/mL).

In turn, `Nc1nc[nH]n1` returned a solubility of 3330 mM (≈ 280000 µg/mL).

The molecule `CCC(C)=NO` returned a solubility of 1150 mM (≈ 100000 µg/mL).

As for `CC(CCc1ccccc1)NCC(O)c1ccc(O)c(C(N)=O)c1` (centres undefined), the solubility was 0.356 mM (≈ 117 µg/mL).

In the case of `ClC1=C(Cl)C2(Cl)C3C(Cl)C(Cl)CC3C1(Cl)C2(Cl)Cl` (centres undefined), the solubility is 0.000137 mM (≈ 0.056 µg/mL).

For `c1ccc2nc3ccccc3cc2c1`, the solubility was found to be 0.214 mM (≈ 38.4 µg/mL).

`C=CCCCCCCCC`: the solubility was determined as 0.00406 mM (≈ 0.57 µg/mL).

Molecule `CCC(=O)OC` had a solubility of 708 mM (≈ 62400 µg/mL).

`O=C1OC(=O)c2ccccc21` came in with a solubility of 41.9 mM (≈ 6200 µg/mL).

`O=C(O)CC1CCCCC1` returned a solubility of 20.3 mM (≈ 2880 µg/mL).

For `CCCCCCOC(=O)c1ccccc1C(=O)OCCCCCC`, the solubility turned out to be 0.000149 mM (≈ 0.05 µg/mL).

In turn, `C#CCN1C(=O)COc2cc(F)c(N3C(=O)C4=C(CCCC4)C3=O)cc21` showed a solubility of 0.00505 mM (≈ 1.79 µg/mL).

`CC1CO1` (centres undefined): the solubility worked out at 10200 mM (≈ 590000 µg/mL).

Consider `O=C1CCC(N2C(=O)c3ccccc3C2=O)C(=O)N1` (centres undefined), for which the solubility was determined as 2.11 mM (≈ 545 µg/mL).

For `CCCCOC(=O)c1ccccc1`, the solubility stood at 0.331 mM (≈ 59 µg/mL).

For `C=C(C)C(=O)OCC`, the solubility is 47.3 mM (≈ 5400 µg/mL).

The molecule `CCC(C)n1c(=O)[nH]c(C)c(Br)c1=O` (centres undefined) returned a solubility of 3.12 mM (≈ 815 µg/mL).

Still in this series, the particulars now being: 25.0 °C.
For the molecule `CCCCCC(C)=O`, the log10 OH rate constant (cm³/molecule/s) is -10.9.

`C=C1CCC2(C(C)C)CC12` (centres undefined): the log10 OH rate constant (cm³/molecule/s) is -9.93.

Consider `CCCC=O`, for which the log10 OH rate constant (cm³/molecule/s) was -10.6.

The same series, now with this note: 26 °C.
As to `CCNc1nc(O)nc(NC(C)C)n1`, the solubility amounted to 0.0299 mM (≈ 5.9 µg/mL).

Staying with this series, now noted: 30 °C.
On to `Fc1ccccc1`, for which the solubility is 16 mM (≈ 1540 µg/mL).

For the origin of these results see the OPERA property sets (Mansouri et al. 2018).
